Experimental data published in PubChem BioAssay AID328 (DTP/NCI, 2004).
Toxic doses and inconclusive results are not listed.

Tested on: BDF1 mice, P388 leukemia ip, median survival T/C
Assay: NCI In Vivo Anticancer Drug Screen. Data for tumor model P388 Leukemia (intraperitoneal) in B6D2F1 (BDF1) mice
Conditions: endpoint: median survival time, higher = longer survival
How it was run: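 Each value expresses how treatment altered survival: treated-mouse outcome over vehicle-mouse outcome, both groups bearing the transplanted tumour.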

[1] = dose: 50.0 mg/kg/injection, schedule: Q01DX009 (ip), vehicle: saline with Tween-80
[2] = dose: 100.0 mg/kg/injection, schedule: Q01DX009 (ip), vehicle: saline with Tween-80
[3] = dose: 100.0 mg/kg/injection, schedule: Q04DX003 (ip), vehicle: Klucel (hydroxypropylcellulose) (HPC)
[4] = dose: 100.0 mg/kg/injection, schedule: Q04DX003 (ip), vehicle: saline with Tween-80
[5] = dose: 200.0 mg/kg/injection, schedule: Q04DX003 (ip), vehicle: saline with Tween-80
[6] = dose: 400.0 mg/kg/injection, schedule: Q04DX003 (ip), vehicle: saline with Tween-80
[7] = dose: 100.0 mg/kg/injection, schedule: Q01DX009 (ip), vehicle: Klucel (hydroxypropylcellulose) (HPC)
[8] = dose: 200.0 mg/kg/injection, schedule: Q01DX009 (ip), vehicle: Klucel (hydroxypropylcellulose) (HPC)
[9] = dose: 400.0 mg/kg/injection, schedule: Q01DX009 (ip), vehicle: Klucel (hydroxypropylcellulose) (HPC)
[10] = dose: 200.0 mg/kg/injection, schedule: Q01DX009 (ip), vehicle: saline with Tween-80

For `c1ccc2c(c1)ccc1c2c[n+](CCCCCCCC[n+]2cc3c4ccccc4ccc3c3ccccc32)c2ccccc12`, the T/C (dose: 1.56 mg/kg/injection, schedule: Q01DX009 (ip), vehicle: other) was 165 % of control, the T/C (dose: 6.25 mg/kg/injection, schedule: Q01DX009 (ip), vehicle: other) was 98 % of control and the T/C (dose: 12.5 mg/kg/injection, schedule: Q01DX009 (ip), vehicle: other) was 106 % of control. For the same molecule, the T/C (dose: 25.0 mg/kg/injection, schedule: Q01DX009 (ip), vehicle: other) was 95 % of control.
For `O=[N+]([O-])c1ccc(S(=O)(=O)OCc2ccccc2OS(=O)(=O)c2ccc([N+](=O)[O-])cc2)cc1`, the T/C (dose: 25.0 mg/kg/injection, schedule: Q01DX009 (ip), vehicle: saline with Tween-80) was 109 % of control, the T/C (dose: 25.0 mg/kg/injection, schedule: Q04DX003 (ip), vehicle: Klucel (hydroxypropylcellulose) (HPC)) was 110 % of control and the T/C [1] was 114 % of control. The T/C (dose: 50.0 mg/kg/injection, schedule: Q04DX003 (ip), vehicle: Klucel (hydroxypropylcellulose) (HPC)) was 100 % of control, the T/C [2] was 114 % of control and the T/C [3] was 95 % of control.
For `CCCC(=O)NO`, the T/C (dose: 100.0 mg/kg/injection, schedule: Q01DX009 (ip), vehicle: saline sonified) was 100 % of control, the T/C (dose: 200.0 mg/kg/injection, schedule: Q01DX009 (ip), vehicle: saline sonified) was 100 % of control and the T/C (dose: 400.0 mg/kg/injection, schedule: Q01DX009 (ip), vehicle: saline sonified) was 100 % of control.
For `CCOC(=O)C(Br)c1cccc(OC)c1` (stereo not drawn), the T/C [4] was 100 % of control, the T/C [5] was 100 % of control and the T/C [6] was 110 % of control.
`ClCCN(CCCl)CCNc1ccnc2cc(Cl)ccc12` was tested, and the T/C (dose: 0.13 mg/kg/injection, schedule: Q01DX009 (ip), vehicle: saline) was 105 % of control, the T/C (dose: 0.5 mg/kg/injection, schedule: Q01DX009 (ip), vehicle: saline) was 100 % of control and the T/C (dose: 1.0 mg/kg/injection, schedule: Q04DX003 (ip), vehicle: saline) was 172 % of control. For the same molecule, the T/C (dose: 1.32 mg/kg/injection, schedule: Q01DX009 (ip), vehicle: saline) was 154 % of control, the T/C (dose: 2.0 mg/kg/injection, schedule: Q01DX009 (ip), vehicle: saline) was 154 % of control and the T/C (dose: 2.0 mg/kg/injection, schedule: Q04DX003 (ip), vehicle: saline) was 109 % of control. For the same molecule, the T/C (dose: 3.0 mg/kg/injection, schedule: Q01DX009 (ip), vehicle: saline) was 181 % of control, the T/C (dose: 4.0 mg/kg/injection, schedule: Q04DX003 (ip), vehicle: saline) was 154 % of control and the T/C (dose: 6.0 mg/kg/injection, schedule: Q04DX003 (ip), vehicle: saline) was 159 % of control. For the same molecule, the T/C (dose: 12.5 mg/kg/injection, schedule: Q04DX003 (ip), vehicle: saline) was 163 % of control and the T/C (dose: 25.0 mg/kg/injection, schedule: Q04DX003 (ip), vehicle: saline) was 86 % of control.
In the case of `O=C(Nc1ccc(NC(=O)Nc2cccc(C3=NCCCN3)c2)cc1)Nc1ccc(C2=NCCCN2)cc1`, the T/C (dose: 6.6 mg/kg/injection, schedule: Q01DX009 (ip), vehicle: saline with Tween-80) is reported as 154 % of control and the T/C (dose: 10.0 mg/kg/injection, schedule: Q01DX009 (ip), vehicle: saline with Tween-80) is reported as 181 % of control.
In the case of `CCOC(=O)CNCc1cccnc1`, the T/C (dose: 100.0 mg/kg/injection, schedule: Q04DX003 (ip), vehicle: saline) is reported as 120 % of control, the T/C (dose: 200.0 mg/kg/injection, schedule: Q04DX003 (ip), vehicle: saline) is reported as 117 % of control and the T/C (dose: 400.0 mg/kg/injection, schedule: Q04DX003 (ip), vehicle: saline) is reported as 118 % of control.
`CCC/C(=N\Nc1ccc([N+](=O)[O-])cc1[N+](=O)[O-])c1ccccc1` was tested, and the T/C (dose: 25.0 mg/kg/injection, schedule: Q04DX003 (ip), vehicle: saline with Tween-80) was 90 % of control, the T/C (dose: 50.0 mg/kg/injection, schedule: Q04DX003 (ip), vehicle: saline with Tween-80) was 100 % of control and the T/C [4] was 109 % of control.
`O=C1c2ccccc2C(=O)N1CNc1ccc(Cc2ccc(NCN3C(=O)c4ccccc4C3=O)c(Cl)c2)cc1Cl` was tested, and the T/C [7] was 100 % of control, the T/C [3] was 100 % of control and the T/C [8] was 100 % of control. The T/C (dose: 200.0 mg/kg/injection, schedule: Q04DX003 (ip), vehicle: Klucel (hydroxypropylcellulose) (HPC)) was 95 % of control, the T/C [9] was 90 % of control and the T/C (dose: 400.0 mg/kg/injection, schedule: Q04DX003 (ip), vehicle: Klucel (hydroxypropylcellulose) (HPC)) was 95 % of control.
For `CN(C)C=O.CN(C)C=O.[Cl][Sn]([Cl])([Cl])[Cl]`, the T/C (dose: 25.0 mg/kg/injection, schedule: Q01DX009 (ip), vehicle: Klucel (hydroxypropylcellulose) (HPC)) was 100 % of control, the T/C (dose: 50.0 mg/kg/injection, schedule: Q01DX009 (ip), vehicle: Klucel (hydroxypropylcellulose) (HPC)) was 105 % of control and the T/C (dose: 75.0 mg/kg/injection, schedule: Q04DX003 (ip), vehicle: Klucel (hydroxypropylcellulose) (HPC)) was 109 % of control. For the same molecule, the T/C [7] was 100 % of control and the T/C (dose: 150.0 mg/kg/injection, schedule: Q04DX003 (ip), vehicle: Klucel (hydroxypropylcellulose) (HPC)) was 86 % of control.
With `Cc1cc[n+]2cc3c(ccc4ccccc43)c(C)c2c1` the T/C (dose: 0.7 mg/kg/injection, schedule: Q01DX010 (ip), vehicle: carboxymethylcellulose (CMC)) was 110 % of control, the T/C (dose: 1.5 mg/kg/injection, schedule: Q01DX010 (ip), vehicle: carboxymethylcellulose (CMC)) was 100 % of control and the T/C (dose: 3.0 mg/kg/injection, schedule: Q01DX010 (ip), vehicle: carboxymethylcellulose (CMC)) was 110 % of control. For the same molecule, the T/C (dose: 6.0 mg/kg/injection, schedule: Q01DX010 (ip), vehicle: carboxymethylcellulose (CMC)) was 115 % of control, the T/C (dose: 12.5 mg/kg/injection, schedule: Q01DX010 (ip), vehicle: carboxymethylcellulose (CMC)) was 110 % of control and the T/C (dose: 25.0 mg/kg/injection, schedule: Q01DX010 (ip), vehicle: carboxymethylcellulose (CMC)) was 110 % of control.
In the case of `COc1cc(C(=O)N2CCN(c3ccccc3)CC2)c2ccccc2n1`, the T/C (dose: 180.0 mg/kg/injection, schedule: Q01DX010 (ip), vehicle: carboxymethylcellulose (CMC)) is reported as 114 % of control, the T/C (dose: 266.0 mg/kg/injection, schedule: Q01DX010 (ip), vehicle: carboxymethylcellulose (CMC)) is reported as 104 % of control and the T/C (dose: 400.0 mg/kg/injection, schedule: Q01DX010 (ip), vehicle: carboxymethylcellulose (CMC)) is reported as 104 % of control. For the same molecule, the T/C (dose: 600.0 mg/kg/injection, schedule: Q01DX010 (ip), vehicle: carboxymethylcellulose (CMC)) was 95 % of control.
`COC(OC)c1cc(=O)[nH]c(NC(=O)C(Cl)Cl)n1` was tested, and the T/C [4] was 112 % of control, the T/C [5] was 95 % of control and the T/C [6] was 104 % of control.
In the case of `CNC(=O)C(C)(C)c1ccccc1`, the T/C [7] is reported as 90 % of control, the T/C [8] is reported as 90 % of control and the T/C [9] is reported as 104 % of control.
With `Oc1ccc(OCc2ccccc2)cc1` the T/C (dose: 100.0 mg/kg/injection, schedule: Q04DX003 (ip), vehicle: other) was 100 % of control, the T/C (dose: 200.0 mg/kg/injection, schedule: Q04DX003 (ip), vehicle: other) was 104 % of control and the T/C (dose: 400.0 mg/kg/injection, schedule: Q04DX003 (ip), vehicle: other) was 100 % of control.
For `CN1C2Oc3ccccc3C1Oc1ccccc12`, the T/C [1] was 112 % of control, the T/C [2] was 99 % of control and the T/C [10] was 99 % of control.
In the case of `CCN(CC)CCCC(C)Nc1c2ccc(Cl)cc2nc2cc(Cl)ccc12` (stereo not drawn), the T/C (dose: 12.5 mg/kg/injection, schedule: Q01DX009 (ip), vehicle: Klucel (hydroxypropylcellulose) (HPC)) is reported as 120 % of control.
For `COc1cccc2c1N=C1CCCC3CN(C(C)=O)CCC123` (stereo not drawn), the T/C [1] was 99 % of control, the T/C [2] was 103 % of control and the T/C [10] was 99 % of control.
For `CC1=NN(c2ccccc2)C(=O)C1=Nc1c(C)[nH]n(-c2ccccc2)c1=O`, the T/C (dose: 30.0 mg/kg/injection, schedule: Q01DX009 (ip), vehicle: saline with Tween-80) was 96 % of control and the T/C (dose: 60.0 mg/kg/injection, schedule: Q01DX009 (ip), vehicle: saline with Tween-80) was 91 % of control.
For `CN(C)c1ccc(/C=C/c2ccnc3c(O)ccc(O)c23)cc1`, the T/C [1] was 112 % of control and the T/C [2] was 124 % of control.
With `CNC(=O)c1ccc(C(=O)NC)cc1` the T/C [4] was 100 % of control, the T/C [5] was 100 % of control and the T/C [6] was 109 % of control.
With `N#C/C(=C\C=C\c1ccccc1)C(N)=O` the T/C [1] was 110 % of control, the T/C [2] was 120 % of control and the T/C [10] was 120 % of control.
With `Cc1cc(=O)oc2c(N)nccc12` the T/C (dose: 12.5 mg/kg/injection, schedule: Q01DX005 (ip), vehicle: saline with Tween-80) was 121 % of control.
